Laboratory results: PubChem BioAssay (NCI)
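In this assay, cells in 96-well plates receive the compound at five concentrations for 48 hours. Endpoints are linearly interpolated between the surrounding concentrations. GI50: concentration for 50% inhibition of growth. The concentration for full growth arrest is given as TGI.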

Columns and labels:
Assay in all cases: NCI-60 cell line screen, 48 h
HT29 colon = system: HT29 colon
MCF7 breast = system: MCF7 breast
UACC-62 melanoma = system: UACC-62 melanoma
RPMI-8226 leukemia = system: RPMI-8226 leukemia
SNB-19 CNS = system: SNB-19 CNS
MDA-MB-231 breast = system: MDA-MB-231 breast
HS 578T breast = system: HS 578T breast
A498 renal = system: A498 renal

SMILES	GI50 (HT29 colon) [µM]	TGI (HT29 colon) [µM]	GI50 (MCF7 breast) [µM]	TGI (MCF7 breast) [µM]	GI50 (UACC-62 melanoma) [µM]	TGI (UACC-62 melanoma) [µM]	GI50 (RPMI-8226 leukemia) [µM]	TGI (RPMI-8226 leukemia) [µM]	GI50 (SNB-19 CNS) [µM]	TGI (SNB-19 CNS) [µM]	GI50 (MDA-MB-231 breast) [µM]	TGI (MDA-MB-231 breast) [µM]	GI50 (HS 578T breast) [µM]	TGI (HS 578T breast) [µM]	GI50 (A498 renal) [µM]	TGI (A498 renal) [µM]
C=C1[C@@H](O)O[C@H]2[C@H]1C[C@H](OC(C)=O)[C@]13C(=O)O[C@H]4C[C@](C)(O)[C@H]([C@H]41)C31C=C(C)[C@]2(O)O1	75.4	> 100	25.8	54.7	30.3	> 100	24.2	> 100	> 100	> 100	34.9	> 100				
Cc1[nH]c(-c2cc(N)ccc2Cl)c2c1C(=O)CCCC2	2.7	> 100	2.32	> 100	0.809	7.2	3.63	44.2	4.53	> 100	3.82	> 100	2.11	17.8	3.22	9.84
O=C(O)c1ccccc1NC(=S)c1ccccc1		> 100		> 100		> 100		75.8		> 100		> 100		> 100		> 100
CCN1C(=O)N(CC)C2C1NN=c1s/c(=C\c3ccc(F)cc3)c(=O)n12 (stereo unspecified)	0.0614	> 100	0.0454	> 100	0.111	> 100	0.326	> 63.2	0.374	> 100	0.406	> 80.2	0.183	> 100	0.0394	0.33
CC1C=CC(OC(=O)C(C)(O)CCC(O)(C(=O)OC2CC(O)C(C(C)C)CC2(C)O)C(C)C)(C(C)C)CC1 (stereo unspecified)	0.599	1.56	0.182	0.904	0.511	2.79	0.161	0.711	1.19	16.2	0.656	1.36	0.792	4.84	0.844	2.03
C[C@@H]1O[C@@H](O[C@@H]2[C@@H](O)[C@H](OCCc3ccc(O)c(O)c3)O[C@H](CO)[C@H]2OC(=O)/C=C/c2ccc(O)c(O)c2)[C@H](O)[C@H](OC2OC[C@](O)(CO)[C@H]2O)[C@H]1O (stereo partly specified)					> 100	> 100	34.9	> 100	> 100	> 100	> 100	> 100	> 100	> 100		
Oc1cccc2c1NCCC2	5.19	> 100			0.144	4.51	0.12	> 100	0.164	> 100	0.183	> 100	0.183	> 100	2.57	9.07
CC(CO)(Nc1ccc([N+](=O)[O-])cc1[N+](=O)[O-])C(=O)O (stereo unspecified)		30.4		32.1		> 100		> 100		> 100		> 100		46.3		
Cc1ccc(C2C3Cc4ccccc4C3=NN2c2ccc(S(=O)(=O)/N=c3\scc(-c4ccccc4)n3-c3ccccc3)cc2)cc1 (stereo unspecified)			5.71	33.7	14	27.7	13.4	35.6	64.8	> 100	14.9	32.7	17.2	44.8	14.9	36.1
Nc1n[nH]c2ccc([C@@H]3Nc4cc5c(cc4[C@H]4C6CCC(C6)[C@@H]34)C(=O)NC5)cc12 (stereo partly specified)	0.393	> 100	0.18	> 100	0.408	> 100			0.57	> 100	0.436		0.484	> 100	0.13	0.737
COc1cc2c(cc1F)C(c1ccccc1Cl)=Nc1c(n[nH]c1C)N2	0.587	8.83	1.03	20.7	0.995	17.2			8.69	22.3	2.12	16.9	0.214	0.838	2.06	9.97
C[CH2][Hg][S]c1ccccc1C(=O)O			1.21	2.62	1.36	2.98	1.28	4.24	2.98	12.3	1.26	2.58	2.08	> 100	1.64	4.04
CN=C1OC2(c3ccccc3)C3=C(OC(=NC)N2C)C(=O)OC3(c2ccccc2)N1C (stereo unspecified)		> 100		> 100		> 100				> 100		> 100		> 100		> 100
